Results reported in US20190307843A1, “SINGLE DOSE METHODS FOR PREVENTING AND TREATING FUNGAL INFECTIONS” (Cidara Therapeutics, Inc., priority 2016, published 2019).
Read-outs that look alike come from different tables or passages of the source. Starred links: 1 amine or outer side, 2 acyl side, 3 side chain; linkers in the order of their positions; H or OH if unused. Positions of bridges follow the written chain, without caps; N, C: chain ends. Non-standard residues stand in square brackets, D forms with d. Residues, ends and D or L forms follow the SMILES beside them. *: point of attachment. Orn(4R-OH,5R-OCH2CH2NMe3+) = C[N+](C)(C)CCO[C@@H](N[*:3])[C@H](O)C[C@H](N[*:1])C(=O)[*:2]; pTerphenylCO(4''-OnC5H11) = CCCCCOc1ccc(-c2ccc(-c3ccc(C(=O)*)cc3)cc2)cc1; hTyr(3S-OH,4S-OH) = N[C@H](C(=O)O)[C@H](O)[C@@H](O)c1ccc(O)cc1; Pro(3S-OH,4S-Me) = C[C@H]1CN[C@H](C(=O)O)[C@H]1O; Hyp = O=C(O)[C@@H]1C[C@@H](O)CN1

Key:
[1] = system: Aspergillus fumigatus (ATCC 13073); assay: Prophylaxis, neutropenic ICR mouse disseminated aspergillosis model, survival
[2] = system: C. albicans; assay: In vitro susceptibility testing (CLSI M27-A3), C. albicans; format: cell-based; conditions: Candida albicans, 24 h
Procedure: Ten clinical Candida strains were used for the in vivo treatment studies, including four C. albicans, three C. glabrata, and three C. parapsilosis strains (Table 15). This group was selected to encompass phenotypic variability in susceptibility to triazoles and echinocandins and based on similar fitness in the animal model as defined by the amount of growth in control animals over 24 h. The organisms were maintained, grown, and quantified on Sabouraud's dextrose agar (SDA) plates.
In vitro susceptibility testing. All isolates were tested in accordance with the standards in CLSI document M27-A3. The MICs were determined visually after 24 h of incubation as the lowest concentration of drug that causes a significant diminution (50%) of growth compared to controls. MICs were determined on three separate occasions in duplicate.

[3] = system: C. glabrata; assay: Neutropenic murine disseminated candidiasis model, PK/PD targets, C. glabrata
[4] = Protein binding by ultracentrifugation, human plasma; format: in vitro ADME
Procedure: Concentrations in plasma ranging from 7 to 60 μg/mL were tested and resulting samples were analyzed by LC-MS/MS.

[5] = system: invasive candidiasis; assay: Human subject with invasive candidiasis, single subcutaneous dose (Example 3); format: in vivo; conditions: single dose of 50-1200 mg acetate salt of CD101, subcutaneous injection
Procedure: A human subject is diagnosed with invasive candidiasis using standard diagnostic procedures. The subject receives treatment with a single dose of 50-1200 mg (e.g., 75±25 mg, 100±25 mg, 150±50 mg, 200±50 mg, 250±50 mg, 300±50 mg, 350±50 mg, 400±50 mg, 450±50 mg, 500±100 mg, 600±100 mg, 700±100 mg, 800±100 mg, 900±50 mg, 1000 mg±100 mg, or 1100±100 mg) of the acetate salt of CD101 administered by subcutaneous injection. No other antifungal treatment is provided to the subject within one to three weeks before or after administration of the single dose CD101 treatment.

[6] = Previous toxicology studies by the IV route; format: in vivo, cynomolgus monkey
Procedure: Previous toxicology studies by the IV route of administration conducted in cynomolgus monkeys have shown CD101 to be safe and well tolerated at up to at least 30 mg/kg, which generates very high systemic exposures upon initial infusion of CD101 into the bloodstream. Therefore, only local tolerability (and PK) of CD101 by SC administration required evaluation. […] Plasma concentrations were then quantified by liquid chromatography with tandem mass spectrometric detection (LC-MS/MS). Bioavailability from SC dosing was calculated by comparing the calculated area under the concentration-time profile (AUC) from SC against the AUC from IV administration of the same dose.

[7] = system: Aspergillus fumigatus (ATCC 13073); assay: Neutropenic mouse aspergillosis model, survival; format: in vivo; conditions: CD101 2 mg/kg IV or IP one dose; 10 days
[8] = Plasma and lung epithelial lining fluid (ELF) concentrations in ICR mice, 20 mg/kg IP; format: in vivo, mouse; conditions: for Kp / half-life: 20 mg/kg
Procedure: At pre-dose, 1, 3, 6, 12, 24, 48, and 72 hours post-dose, 3 mice/timepoint were anesthetized/euthanized for blood collection (plasma) and bronchoalveolar lavage fluid (BALF) collection with 2×0.5 mL flushes of saline. Urea levels for plasma/BALF normalization for the volume of lung epithelial lining fluid (ELF) calculation were quantified using a commercially-available spectrophotometry-based assay. CD101 concentrations in plasma/BALF samples were measured by LC with electrospray ionization tandem mass spectrometric (LC-MS/MS) detection.
Urea for plasma/BALF normalization for ELF volume were quantified using spectrophotometry. CD101 concentrations in plasma/BALF samples were measured by LC-MS/MS. Total plasma concentrations were corrected for protein binding (99.2%).

[9] = C. glabrata, Median of 3 strains

CCCCCOc1ccc(-c2ccc(-c3ccc(C(=O)N[C@H]4C[C@@H](O)[C@@H](OCC[N+](C)(C)C)NC(=O)[C@@H]5[C@@H](O)[C@@H](C)CN5C(=O)[C@H]([C@@H](C)O)NC(=O)[C@H]([C@H](O)[C@@H](O)c5ccc(O)cc5)NC(=O)[C@@H]5C[C@@H](O)CN5C(=O)[C@H]([C@@H](C)O)NC4=O)cc3)cc2)cc1 [CD101] ({pTerphenylCO(4''-OnC5H11)}-[Orn(4R-OH,5R-OCH2CH2NMe3+)]T[Hyp][hTyr(3S-OH,4S-OH)]T[Pro(3S-OH,4S-Me)]; lactam 1-C)
survival ([1]; CD101 SC 5 mg/kg, 14 days): increased survival when prophylaxis was given closer to challenge | symptoms of infection (body weight, hunched posture, ruffled fur, immobility, hypothermia) ([1]; CD101 SC 5, 10 and 20 mg/kg on Day −5, −3 and −1): improved | survival ([1]; CD101 SC 10 and 20 mg/kg, any prophylactic treatment day, 14 days): All animals in the 10 and 20 mg/kg groups survived | 14-day survival ([1]; CD101 at 5 mg/kg SC administered one hour after infection): significant increase in the 14-day survival | survival ([1]; prophylaxis, Doses 0 mg/kg): 100% | survival ([1]; prophylaxis, single 5 mg/kg dose given up to 5 days prior to infection): improved survival depending on day given | MIC ([2]; C. albicans 98-17): 0.06 µg/mL | MIC ([2]; C. albicans 98-210): 0.03 µg/mL | MIC ([2]; C. albicans 580): 0.06 µg/mL | MIC ([2]; C. albicans K-1, 50% growth diminution): 0.06 µg/mL | 1 log kill 24 h Ave Free drug AUC/MIC ([3]; C. glabrata 5592): 0.36 | 1 log kill dose ([3]; C. glabrata 5592): 0.43 mg/kg | 1 log kill free drug AUC0-168h/MIC ([3]; C. glabrata 5592): 2.54 | 1 log kill total drug AUC0-168h/MIC ([3]; C. glabrata 5592): 317.50 | Stasis 24 h Ave free drug AUC/MIC ([3]; C. glabrata 5592): 0.05 | Stasis free drug AUC0-168h/MIC ([3]; C. glabrata 5592): 0.35 | Stasis total drug AUC0-168h/MIC ([3]; C. glabrata 5592): 43.16 | Static dose ([3]; C. glabrata 5592): 0.06 mg/kg | 1 log kill 24 h Ave Free drug AUC/MIC ([3]; C. glabrata 10956): 1.20 | 1 log kill dose ([3]; C. glabrata 10956): 17.25 mg/kg | 1 log kill free drug AUC0-168h/MIC ([3]; C. glabrata 10956): 8.42 | 1 log kill total drug AUC0-168h/MIC ([3]; C. glabrata 10956): 1052.22 | Stasis 24 h Ave free drug AUC/MIC ([3]; C. glabrata 10956): 0.48 | Stasis free drug AUC0-168h/MIC ([3]; C. glabrata 10956): 3.35 | Stasis total drug AUC0-168h/MIC ([3]; C. glabrata 10956): 418.68 | Static dose ([3]; C. glabrata 10956): 6.29 mg/kg | 1 log kill 24 h Ave Free drug AUC/MIC ([3]; C. glabrata 35315): 0.42 | 1 log kill dose ([3]; C. glabrata 35315): 2.39 mg/kg | 1 log kill free drug AUC0-168h/MIC ([3]; C. glabrata 35315): 2.94 | 1 log kill total drug AUC0-168h/MIC ([3]; C. glabrata 35315): 367.06 | Stasis 24 h Ave free drug AUC/MIC ([3]; C. glabrata 35315): 0.07 | Stasis free drug AUC0-168h/MIC ([3]; C. glabrata 35315): 0.50 | Stasis total drug AUC0-168h/MIC ([3]; C. glabrata 35315): 62.50 | Static dose ([3]; C. glabrata 35315): 0.34 mg/kg | 1 log kill 24 h Ave Free drug AUC/MIC ([3]; C. glabrata, Mean of 3 strains): 0.66 | 1 log kill dose ([3]; C. glabrata, Mean of 3 strains): 6.69 mg/kg | 1 log kill free drug AUC0-168h/MIC ([3]; C. glabrata, Mean of 3 strains): 4.63 | 1 log kill total drug AUC0-168h/MIC ([3]; C. glabrata, Mean of 3 strains): 578.93 | Stasis 24 h Ave free drug AUC/MIC ([3]; C. glabrata, Mean of 3 strains): 0.20 | Stasis free drug AUC0-168h/MIC ([3]; C. glabrata, Mean of 3 strains): 1.40 | Stasis total drug AUC0-168h/MIC ([3]; C. glabrata, Mean of 3 strains): 174.78 | Static dose ([3]; C. glabrata, Mean of 3 strains): 2.23 mg/kg | 1 log kill 24 h Ave Free drug AUC/MIC [3, 9]: 0.42 | 1 log kill dose [3, 9]: 2.39 mg/kg | 1 log kill free drug AUC0-168h/MIC [3, 9]: 2.94 | 1 log kill total drug AUC0-168h/MIC [3, 9]: 367.06 | Stasis 24 h Ave free drug AUC/MIC [3, 9]: 0.07 | Stasis free drug AUC0-168h/MIC [3, 9]: 0.5 | Stasis total drug AUC0-168h/MIC [3, 9]: 62.50 | Static dose [3, 9]: 0.34 mg/kg | kill at high doses ([3]; C. glabrata, a number of strains): > 2 log10 | free fraction in human vs mouse plasma [4]: ~3 × | percent of bound CD101, mean ([4]; human plasma): 97.4% | invasive candidiasis infection at follow-up visit [5]: confirmed to be resolved | dose safe and well tolerated [6]: at least 30 mg/kg | survival vs vehicle [7]: significantly longer survival than vehicle | ELF half-life ([8]; 20 mg/kg IP): 32 h | mean maximum ELF concentration ([8]; 20 mg/kg IP): 15.1 µg/mL | mean maximum plasma concentration ([8]; 20 mg/kg IP): 30.1 µg/mL | plasma half-life ([8]; 20 mg/kg IP): 21.1 h | time of maximum plasma concentration ([8]; 20 mg/kg IP, first collection timepoint): 1 h | Kp ([8]; ICR, mouse, lung epithelial lining fluid (ELF), intraperitoneal, free-drug, read-out: ELF/Plasma AUClast ratio): 100 | Kp ([8]; ICR, mouse, lung epithelial lining fluid (ELF), intraperitoneal, total-drug, read-out: ELF/Plasma AUClast ratio): 0.8 | concentration at 72 h ([8]; ICR, mouse, lung epithelial lining fluid (ELF), intraperitoneal, 20 mg/kg IP, at 72 h): 4000 ng/mL | Kp ([8]; ICR, mouse, lung epithelial lining fluid (ELF), ip, 20 mg/kg IP, read-out: AUC exposure ratios of ELF/plasma): 0.8 to 0.95 | half-life ([8]; ICR, mouse, lung epithelial lining fluid (ELF), ip, 20 mg/kg IP, read-out: ELF half-life (converted)): 31.9 h | AUC ([8]; ICR, mouse, lung epithelial lining fluid (ELF), 20 mg/kg IP, read-out: mean ELF AUC): 802 µg·h/mL | AUC(0-t) ([8]; ICR, mouse, lung epithelial lining fluid (ELF), 20 mg/kg IP, read-out: mean ELF AUC0-72): 606 µg·h/mL | half-life ([8]; ICR, mouse, plasma, ip, 20 mg/kg IP, read-out: plasma half-life (converted)): 21 h | AUC ([8]; ICR, mouse, plasma, 20 mg/kg IP, read-out: mean plasma AUC): 848 µg·h/mL | AUC(0-t) ([8]; ICR, mouse, plasma, 20 mg/kg IP, read-out: mean plasma AUC0-72): 762 µg·h/mL
